For 6 compounds, Activity results are on record in ChEMBL document CHEMBL3271967, “Evidence for separate peptide sequences related to the lipolytic and magnesium-accumulating activities of ACTH. Analogy with adrenergic receptors” (J Med Chem, 1977).

For experiment [1], the species on record is Rattus norvegicus. Put plainly: Induction of magnesium accumulation in rat adipocyte plasma membrane vesicles assessed as increase of intravesicular magnesium level per 30 mins at 5 x 10^-8 M by fluorescence assay. Format: functional, cell membranes.
For experiment [2], the species on record is Rattus norvegicus. Put plainly: Induction of magnesium accumulation in rat adipocyte plasma membrane vesicles assessed as increase of magnesium level per gram of protein per 30 mins at 5 x 10^-8 M by fluorescence assay. Format: functional, cell membranes.
In the next experiment the test system is Lipid bilayer. Put plainly: Lipolytic activity in isolated rat adipocytes assessed as fatty acid release at 0.5 to 100 nmol/ml.
The species entered for experiment [3] is Rattus norvegicus. Put plainly: Induction of magnesium accumulation in rat adipocyte plasma membrane vesicles assessed as increase of intravesicular magnesium level per 30 mins at 1 x 10^-5 M by fluorescence assay in presence of beta-adrenergic antagonist propranolol. Format: functional, cell membranes.
For experiment [4], the species on record is Rattus norvegicus. Put plainly: Induction of magnesium accumulation in rat adipocyte plasma membrane vesicles assessed as increase of magnesium level per gram of protein per 30 mins at 1 x 10^-5 M by fluorescence assay in presence of beta-adrenergic antagonist propranolol. Format: functional, cell membranes.
The species entered for experiment [5] is Rattus norvegicus. Put plainly: Induction of magnesium accumulation in rat adipocyte plasma membrane vesicles assessed as increase of intravesicular magnesium level per 30 mins at 1 x 10^-5 M by fluorescence assay in presence of alpha-adrenergic antagonist phentolamine. Format: functional, cell membranes.
The species entered for experiment [6] is Rattus norvegicus. Put plainly: Induction of magnesium accumulation in rat adipocyte plasma membrane vesicles assessed as increase of magnesium level per gram of protein per 30 mins at 1 x 10^-5 M by fluorescence assay in presence of alpha-adrenergic antagonist phentolamine. Format: functional, cell membranes.
The species named for experiment [7] is Rattus norvegicus. Briefly: Induction of magnesium accumulation in rat adipocyte plasma membrane vesicles assessed as increase of intravesicular magnesium level per 30 mins at 1 x 10^-5 M by fluorescence assay. Format: functional, cell membranes.
Experiment [8] is filed under the species Rattus norvegicus. Briefly: Induction of magnesium accumulation in rat adipocyte plasma membrane vesicles assessed as increase of magnesium level per gram of protein per 30 mins at 1 x 10^-5 M by fluorescence assay. Format: functional, cell membranes.
The species named for experiment [9] is Rattus norvegicus. Briefly: Induction of magnesium accumulation in rat adipocyte plasma membrane vesicles assessed as increase of intravesicular magnesium level per 30 mins at 2 x 10^-4 M by fluorescence assay. Format: functional, cell membranes.
The species named for experiment [10] is Rattus norvegicus. Put plainly: Induction of magnesium accumulation in rat adipocyte plasma membrane vesicles assessed as increase of magnesium level per gram of protein per 30 mins at 2 x 10^-4 M by fluorescence assay. Format: functional, cell membranes.

Calls of active or inactive are those of the source. The rule behind the calls is not given here. Residues, ends and D or L forms follow the SMILES beside them.

As for `CC(C)[C@H](NC(=O)[C@H](CCCCN)NC(=O)[C@@H](NC(=O)[C@@H]1CCCN1C(=O)[C@H](CCCNC(=N)N)NC(=O)[C@H](CCCNC(=N)N)NC(=O)[C@H](CCCCN)NC(=O)[C@H](CCCCN)NC(=O)CNC(=O)[C@@H](NC(=O)[C@@H]1CCCN1C(=O)[C@@H](N)CCCCN)C(C)C)C(C)C)C(=O)N[C@@H](Cc1ccc(O)cc1)C(=O)N1CCC[C@H]1C(=O)O` (H-KPVGKKRRPVKVYP-OH), the values for the Activity in the experiment filed under Rattus norvegicus [1] and in the experiment listed under Rattus norvegicus [2] were 0.8 mM and 8.32 µmol, respectively. Further, in the experiment on Lipid bilayer, the outcome was inactive.
For the compound `CSCC[C@H](NC(=O)[C@H](CO)NC(=O)[C@H](Cc1ccc(O)cc1)NC(=O)[C@@H](N)CO)C(=O)N[C@@H](CCC(=O)O)C(=O)N[C@@H](Cc1cnc[nH]1)C(=O)N[C@@H](Cc1ccccc1)C(=O)N[C@@H](CCCNC(=N)N)C(=O)N[C@@H](Cc1c[nH]c2ccccc12)C(=O)NCC(=O)N[C@@H](CCCCN)C(=O)N1CCC[C@H]1C(=O)N[C@H](C(=O)NCC(=O)N[C@@H](CCCCN)C(=O)N[C@@H](CCCCN)C(=O)N[C@@H](CCCNC(=N)N)C(=O)N[C@@H](CCCNC(=N)N)C(=O)N1CCC[C@H]1C(=O)N[C@H](C(=O)N[C@@H](CCCCN)C(=O)N[C@H](C(=O)N[C@@H](Cc1ccc(O)cc1)C(=O)N1CCC[C@H]1C(=O)N[C@@H](CC(N)=O)C(=O)NCC(=O)N[C@@H](C)C(=O)N[C@@H](CCC(=O)O)C(=O)N[C@@H](CC(=O)O)C(=O)N[C@@H](CCC(=O)O)C(=O)N[C@@H](CC(C)C)C(=O)N[C@@H](C)C(=O)N[C@@H](CCC(=O)O)C(=O)N[C@@H](C)C(=O)N[C@@H](Cc1ccccc1)C(=O)N1CCC[C@H]1C(=O)N[C@@H](CC(C)C)C(=O)N[C@@H](CCC(=O)O)C(=O)N[C@@H](Cc1ccccc1)C(=O)O)C(C)C)C(C)C)C(C)C` (H-SYSMEHFRWGKPVGKKRRPVKVYPNGAEDELAEAFPLEF-OH), the Activity came to 0.94 mM in the experiment filed under Rattus norvegicus [1] and 9.78 µmol in the experiment listed under Rattus norvegicus [2].
Take `NC[C@H](O)c1ccc(O)c(O)c1`: the Activity turned out to be 0.85 mM in the experiment filed under Rattus norvegicus [3]; 8.84 µmol in the experiment listed under Rattus norvegicus [4]; 0.37 mM in the experiment filed under Rattus norvegicus [5]; 3.85 µmol in the experiment listed under Rattus norvegicus [6]; 1.3 mM in the experiment listed under Rattus norvegicus [7]; 13.5 µmol in the experiment listed under Rattus norvegicus [8].
In the case of `CSCC[C@H](NC(=O)[C@H](CO)NC(=O)[C@H](Cc1ccc(O)cc1)NC(=O)[C@@H](N)CO)C(=O)N[C@@H](CCC(=O)O)C(=O)N[C@@H](Cc1cnc[nH]1)C(=O)N[C@@H](Cc1ccccc1)C(=O)N[C@@H](CCCNC(=N)N)C(=O)N[C@@H](Cc1c[nH]c2ccccc12)C(=O)NCC(=O)N[C@@H](CCCCN)C(=O)N1CCC[C@H]1C(=O)N[C@H](C(=O)NCC(=O)N[C@@H](CCCCN)C(=O)N[C@@H](CCCCN)C(=O)N[C@@H](CCCNC(=N)N)C(=O)N[C@@H](CCCNC(=N)N)C(=O)N1CCC[C@H]1C(=O)N[C@H](C(=O)O)C(C)C)C(C)C` (H-SYSMEHFRWGKPVGKKRRPV-OH), the Activity in the experiment filed under Rattus norvegicus [1] was 0.36 mM; in the experiment filed under Rattus norvegicus [2] it was 3.74 µmol. Moreover, the outcome in the experiment on Lipid bilayer was Active.
As to `CC(C)NCC(O)c1ccc(O)c(O)c1` (stereo not drawn), the Activity in the experiment listed under Rattus norvegicus [7] amounted to 0.3 mM; in the experiment filed under Rattus norvegicus [8] it was 3.12 µmol.
For `COc1ccc(OC)c(C(O)C(C)N)c1` (stereo not drawn), the results for the Activity in the experiment listed under Rattus norvegicus [9] and in the experiment listed under Rattus norvegicus [10] were 1.07 mM and 11.1 µmol, respectively.
